system: Plasmodium berghei; assay: (§1) Antimalarial activity against Plasmodium berghei in mice (Mus musculus); format: functional

SMILES	ED50	ED90
C[C@@H]1[C@H](OCc2ccc(C(=O)O)cc2)O[C@@H]2O[C@@]3(C)CC[C@@H]4[C@@H](C)CC[C@@H]1[C@]24OO3 [ARTELINIC ACID]	9.6 mg/kg	29 mg/kg
O=C(O)c1ccc([C@@]23CC[C@H]4CCC[C@H]5CCO[C@H](O2)[C@@]45OO3)cc1	15 mg/kg	51 mg/kg
O=C(O)c1ccc([C@]23CC[C@H]4CCCC[C@@]4(OO2)[C@H](OCc2ccccc2)O3)cc1	17 mg/kg	59 mg/kg

system: Plasmodium berghei; assay: as §1; format: functional, organism-based

SMILES	IC50
Fc1ccc([C@]23CC[C@H]4CCCC[C@@]4(OO2)[C@H](OCc2ccccc2)O3)cc1	31 nM
c1ccc([C@@]23CC[C@H]4CCC[C@H]5CCO[C@H](O2)[C@@]45OO3)cc1	1.3 nM
C[C@@H]1CC[C@H]2[C@@H](C)C(=O)O[C@@H]3O[C@@]4(C)CC[C@@H]1[C@]32OO4 [ARTEMISININ]	9.4 nM
